Assay results as given in ChEMBL document CHEMBL3396986, “Novel β-amyloid aggregation inhibitors possessing a turn mimic” (Bioorg Med Chem Lett, 2015).
Active and inactive are the calls of the source. No cut-off for these calls is given here. *1 amine or outer side, *2 acyl side, *3 side chain or, on linkers, in order; H or OH if unused. Where a SMILES comes first, the peptide text is derived from it. [ ]: non-standard residue; d: D form. X1 = O=C(CCc1cccc2c1oc1c(CCN[*:1])cccc12)[*:2]; PEG8 = NCCOCCOCCOCCOCCOCCOCCOCCOCCC(=O)O; Met(O) = CS(=O)CC[C@H](N)C(=O)O

Columns and labels:
[1] = molecular target: Amyloid-beta precursor protein (Homo sapiens) (UniProt P05067); test: Inhibition of pH-click Amyloid beta (1 to 42) (unknown origin) aggregation after 48 hrs by Thioflavin-T fluorescence assay; set-up: concentration or dose not given beside the values; conditions: concentration not given here
[2] = molecular target: Amyloid-beta precursor protein (Homo sapiens) (UniProt P05067); test: Inhibition of pH-click Amyloid beta (1 to 42) (unknown origin) aggregation after 24 hrs by Thioflavin-T fluorescence assay; set-up: concentration or dose not given beside the values; conditions: concentration not given here
[3] = molecular target: Amyloid-beta precursor protein (Homo sapiens) (UniProt P05067); test: Inhibition of pH-click Amyloid beta (1 to 42) (unknown origin) aggregation 6 to 48 hrs by Thioflavin-T fluorescence assay
[4] = molecular target: Amyloid-beta precursor protein (Homo sapiens) (UniProt P05067); test: Inhibition of authentic Amyloid beta (1 to 42) (unknown origin) aggregation 6 to 48 hrs by Thioflavin-T fluorescence assay

Sequence of Amyloid-beta precursor protein (Homo sapiens) (P05067 whole entry): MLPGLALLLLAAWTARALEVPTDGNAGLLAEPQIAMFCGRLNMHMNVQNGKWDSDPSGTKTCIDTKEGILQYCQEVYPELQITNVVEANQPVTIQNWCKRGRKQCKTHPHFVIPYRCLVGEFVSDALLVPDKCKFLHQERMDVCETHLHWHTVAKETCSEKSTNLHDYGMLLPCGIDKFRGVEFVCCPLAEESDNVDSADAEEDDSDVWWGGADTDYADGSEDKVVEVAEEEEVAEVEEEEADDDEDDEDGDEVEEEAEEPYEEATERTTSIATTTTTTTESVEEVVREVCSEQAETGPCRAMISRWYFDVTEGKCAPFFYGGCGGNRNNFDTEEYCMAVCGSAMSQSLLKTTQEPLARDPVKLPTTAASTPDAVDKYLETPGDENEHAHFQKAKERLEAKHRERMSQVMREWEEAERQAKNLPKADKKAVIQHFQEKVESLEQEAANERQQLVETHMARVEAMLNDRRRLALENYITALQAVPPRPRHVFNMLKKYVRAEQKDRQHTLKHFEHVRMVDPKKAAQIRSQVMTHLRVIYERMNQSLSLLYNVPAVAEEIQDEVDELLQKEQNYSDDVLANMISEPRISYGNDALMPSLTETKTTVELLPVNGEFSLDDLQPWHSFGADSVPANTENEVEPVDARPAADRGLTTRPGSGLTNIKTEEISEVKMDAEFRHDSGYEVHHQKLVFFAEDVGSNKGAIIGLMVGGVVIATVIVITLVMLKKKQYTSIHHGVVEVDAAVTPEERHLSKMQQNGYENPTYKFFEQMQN

| Compound | inhibition [1] | inhibition [2] | inhibition [3] | inhibition [4] |
| --- | --- | --- | --- | --- |
| CC[C@H](C)[C@H](NC(=O)[C@H](C)NC(=O)CCc1cccc2c1oc1c(CCNC(=O)[C@H](CO)NC(=O)CNC(=O)[C@@H](NC(=O)[C@@H](N)CC(=O)O)C(C)C)cccc12)C(=O)N[C@H](C(=O)NCC(=O)NCCOCCOCCOCCOCCOCCOCCOCCOCCC(=O)O)[C@@H](C)CC (H-DVGS[X1]AIIG[PEG8]-OH) | < 5% | < 5% | – | – |
| H-KLVFFA-OH | – | – | Active | Active |
| CC[C@H](C)[C@H](NC(=O)[C@H](C)NC(=O)CNC(=O)CCc1cccc2c1oc1c(CCNC(=O)CNC(=O)[C@@H](NC(=O)[C@H](CC(=O)O)NC(=O)[C@@H](N)CCC(=O)O)C(C)C)cccc12)C(=O)N[C@H](C(=O)NCCOCCOCCOCCOCCOCCOCCOCCOCCC(=O)O)[C@@H](C)CC (H-EDVG[X1]GAII[PEG8]-OH) | 20% | 16% | – | – |
| CC(C)C[C@H](NC(=O)CNC(=O)CCc1cccc2c1oc1c(CCNC(=O)CNC(=O)[C@H](CCCCN)NC(=O)[C@H](CC(N)=O)NC(=O)[C@@H](N)CO)cccc12)C(=O)N[C@@H](CC[S+](C)[O-])C(=O)N[C@H](C(=O)NCCOCCOCCOCCOCCOCCOCCOCCOCCC(=O)O)C(C)C (some centres undefined) (H-SNKG[X1]GL[Met(O)]V[PEG8]-OH) | < 5% | 7% | – | – |
| CC[C@H](C)[C@H](NC(=O)[C@@H](NC(=O)[C@H](C)NC(=O)CNC(=O)CCc1cccc2c1oc1c(CCNC(=O)CNC(=O)[C@@H](NC(=O)[C@H](CC(=O)O)NC(=O)[C@H](CCC(=O)O)NC(=O)CCOCCOCCOCCOCCOCCOCCOCCOCCN)C(C)C)cccc12)[C@@H](C)CC)C(=O)O (H-[PEG8]EDVG[X1]GAII-OH) | < 5% | 13% | – | – |
| CC[C@H](C)[C@H](NC(=O)CCc1cccc2c1oc1c(CCNC(=O)[C@H](CC(N)=O)NC(=O)[C@H](CO)NC(=O)CNC(=O)[C@@H](N)C(C)C)cccc12)C(=O)N[C@H](C(=O)NCC(=O)N[C@@H](CC(C)C)C(=O)NCCOCCOCCOCCOCCOCCOCCOCCOCCC(=O)O)[C@@H](C)CC (H-VGSN[X1]IIGL[PEG8]-OH) | 39% | 49% | – | – |
| CC(C)C[C@H](NC(=O)CNC(=O)CCc1cccc2c1oc1c(CCNC(=O)CNC(=O)[C@H](CCCCN)NC(=O)[C@H](CC(N)=O)NC(=O)[C@H](CO)NC(=O)CCOCCOCCOCCOCCOCCOCCOCCOCCN)cccc12)C(=O)N[C@@H](CC[S+](C)[O-])C(=O)N[C@H](C(=O)O)C(C)C (some centres undefined) (H-[PEG8]SNKG[X1]GL[Met(O)]V-OH) | < 5% | 13% | – | – |

The next lines start with the values.

| inhibition [1] | inhibition [2] | inhibition [3] | inhibition [4] | Compound |
| --- | --- | --- | --- | --- |
| 56% | 56% | – | – | CC[C@H](C)[C@H](NC(=O)CCc1cccc2c1oc1c(CCNC(=O)[C@H](CC(N)=O)NC(=O)[C@H](CO)NC(=O)CNC(=O)[C@@H](NC(=O)CCOCCOCCOCCOCCOCCOCCOCCOCCN)C(C)C)cccc12)C(=O)N[C@H](C(=O)NCC(=O)N[C@@H](CC(C)C)C(=O)O)[C@@H](C)CC (H-[PEG8]VGSN[X1]IIGL-OH) |
| < 5% | 12% | – | – | CC[C@H](C)[C@H](NC(=O)CCc1cccc2c1oc1c(CCNC(=O)[C@H](CCCCN)NC(=O)[C@H](CC(N)=O)NC(=O)[C@H](CO)NC(=O)CN)cccc12)C(=O)NCC(=O)N[C@@H](CC(C)C)C(=O)N[C@@H](CC[S+](C)[O-])C(=O)NCCOCCOCCOCCOCCOCCOCCOCCOCCC(=O)O (some centres undefined) (H-GSNK[X1]IGL[Met(O)][PEG8]-OH) |
| < 5% | 9% | – | – | CC[C@H](C)[C@H](NC(=O)CCc1cccc2c1oc1c(CCNC(=O)[C@H](CCCCN)NC(=O)[C@H](CC(N)=O)NC(=O)[C@H](CO)NC(=O)CNC(=O)CCOCCOCCOCCOCCOCCOCCOCCOCCN)cccc12)C(=O)NCC(=O)N[C@@H](CC(C)C)C(=O)N[C@@H](CC[S+](C)[O-])C(=O)O (some centres undefined) (H-[PEG8]GSNK[X1]IGL[Met(O)]-OH) |
| – | – | Active | Active | CC(C)C[C@@H](NC(=O)[C@H](N)CCCCN)C(=O)N[C@@H](C(=O)N[C@H](Cc1ccccc1)C(=O)N[C@H](Cc1ccccc1)C(=O)N[C@H](C)C(=O)O)C(C)C (H-[dK][dL][dV][dF][dF][dA]-OH) |
| < 5% | 10% | – | – | CC[C@H](C)[C@H](NC(=O)[C@H](C)NC(=O)CCc1cccc2c1oc1c(CCNC(=O)[C@H](CO)NC(=O)CNC(=O)[C@@H](NC(=O)[C@H](CC(=O)O)NC(=O)CCOCCOCCOCCOCCOCCOCCOCCOCCN)C(C)C)cccc12)C(=O)N[C@H](C(=O)NCC(=O)O)[C@@H](C)CC (H-[PEG8]DVGS[X1]AIIG-OH) |
